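Dose response: 5 concentrations. Exposure: 48 h. Format: 96-well plates. Endpoint: linear interpolation; highest concentration if not reached. GI50 = concentration required for 50% inhibition of growth. The concentration for full growth arrest is given as TGI.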
Assays:
Assay in all cases: NCI anticancer screen, dose series, 48 h
[1] = system: NCI-H226 lung
[2] = system: NCI-H23 lung
[3] = system: NCI-H460 lung
[4] = system: NCI-H522 lung
[5] = system: NCI/ADR-RES ovarian
[6] = system: OVCAR-3 ovarian
[7] = system: OVCAR-4 ovarian
[8] = system: OVCAR-5 ovarian
[9] = system: OVCAR-8 ovarian
[10] = system: PC-3 prostate
[11] = system: RPMI-8226 leukemia
[12] = system: RXF 393 renal
[13] = system: SF-268 CNS
[14] = system: SF-295 CNS
[15] = system: SF-539 CNS
[16] = system: SK-MEL-2 melanoma
[17] = system: SK-MEL-28 melanoma
[18] = system: SK-MEL-5 melanoma
[19] = system: SK-OV-3 ovarian
[20] = system: SN12C renal
[21] = system: SNB-19 CNS
[22] = system: SNB-75 CNS
[23] = system: SR leukemia
[24] = system: SW-620 colon
[25] = system: T-47D breast
[26] = system: TK-10 renal
[27] = system: U251 CNS
[28] = system: UACC-257 melanoma
[29] = system: UACC-62 melanoma
[30] = system: UO-31 renal

COc1ccc2c(c1OC)-c1c(c3ccc([N+](=O)[O-])cc3c(=O)n1CCCN)C2=O gave a GI50 [1] of 3.95 µM, a TGI [1] of 8.79 µM and a GI50 [2] of 4.7 µM. For the same compound, the TGI [2] was 9.19 µM, the GI50 [3] was 3.47 µM and the TGI [3] was 12.3 µM. It also gave a GI50 [4] of 3.54 µM, a TGI [4] of 9.33 µM and a GI50 [5] of 4.83 µM. For the same compound, the TGI [5] was 9.76 µM, the GI50 [6] was 16.2 µM and the TGI [6] was 32.6 µM. For the same compound, the GI50 [7] was 5.49 µM, the TGI [7] was 12.1 µM and the GI50 [8] was 5.31 µM. For the same compound, the TGI [8] was 9.74 µM, the GI50 [9] was 3.53 µM and the TGI [9] was 12.9 µM. It also gave a GI50 [10] of 4.59 µM, a TGI [10] of 10.5 µM and a GI50 [11] of 1.01 µM. For the same compound, the TGI [11] was 3.32 µM, the GI50 [12] was 4.32 µM and the TGI [12] was 10.1 µM. It also gave a GI50 [13] of 3.54 µM, a TGI [13] of 13.6 µM and a GI50 [14] of 5.72 µM. The TGI [14] was 11.5 µM, the GI50 [15] was 4.42 µM and the TGI [15] was 9.02 µM. It also gave a GI50 [16] of 4.56 µM, a TGI [16] of 9.77 µM and a GI50 [17] of 5.34 µM. The TGI [17] was 10.4 µM, the GI50 [18] was 4.33 µM and the TGI [18] was 8.82 µM. For the same compound, the GI50 [19] was 7.9 µM, the TGI [19] was 17.6 µM and the GI50 [20] was 3.79 µM. It also gave a TGI [20] of 7.86 µM, a TGI [21] of over 20.2 µM and a TGI [22] of 1.56 µM. It also gave a GI50 [23] of 0.1 µM, a TGI [23] of 0.272 µM and a GI50 [24] of 0.573 µM. The TGI [24] was 4.81 µM, the TGI [25] was over 20.1 µM and the GI50 [26] was 5.72 µM. For the same compound, the TGI [26] was 12 µM, the GI50 [27] was 1.83 µM and the TGI [27] was 5.76 µM. For the same compound, the GI50 [28] was 4.97 µM, the TGI [28] was 9.74 µM and the GI50 [29] was 3.52 µM. For the same compound, the TGI [29] was 7.32 µM, the GI50 [30] was 3.81 µM and the TGI [30] was 7.89 µM.

Source: PubChem BioAssay (NCI)
